The source of these data is US8916702B2 (priority 2012, dated 2014).

pEC50: −log10 of the molar value. Read-outs that look alike come from different tables or passages of the source.

In this assay the test system is HCV pseudoparticles (genotype 1a HCV E1 and E2 envelope, H77C isolate). The assay is described as follows: microbe, parasite or virus in culture. It counts as cell-based. As to conditions: Hepatitis C virus.
[1] abbreviates: Huh-7, read-out: Activity (EC50 class), HCV pseudoparticles (genotype 1a, H77C) in Huh7 cells, EC50 expressed as class A/B.
The mark [2] stands for this setting: Huh-7, 48 h, read-out: Activity (EC50 class), HCV pseudoparticle infection of Huh7 cells, luciferase 2 days after infection, EC50 expressed as class A/B.

Consider `O=C(NC[C@H](NC(=O)c1ccc(Nc2nc(NC3(c4ccc(Cl)cc4)CC3)nc(OCC(F)(F)F)n2)cc1)C(=O)O)C(=O)Nc1ccc(-c2cc[nH]n2)cc1` [Compound 3278], for which the negative logarithm of the EC50 (pEC50) under setting [1] was 8.00 to 11.00.

Take `COC(=O)[C@H](CCNC(=O)C(=O)Nc1ccc(C(C)(C)C)cc1)NC(=O)c1ccc(Nc2nc(NC3(c4ccc(Cl)cc4)CC3)nc(OCC(F)(F)F)n2)cc1` [Compound 3329]: the pEC50 under setting [1] was 8.00 to 11.00.

As for `O=C(Nc1ccc(F)cc1)C(=O)NC1CCCC1CNC(=O)c1ccc(Nc2nc(NC3(c4ccc(Cl)cc4)CC3)nc(OCC(F)(F)F)n2)cc1` (stereo not shown) [Compound 1465, N^1-(2-((4-((4-((1-(4-chlorophenyl)cyclopropyl)amino)-6-(2,2,2-trifluoroethoxy)-1,3,5-triazin-2-yl)amino)benzamido)methyl)cyclopentyl)-N^2-(4-fluorophenyl)oxalamide], under setting [2], the pEC50 is 8.00 to 11.00.

As for `O=C(NCC[C@H](NC(=O)c1ccc(Nc2nc(NC3(c4ccc(Cl)cc4)CC3)nc(OCC(F)(F)F)n2)cc1)C(=O)O)C(=O)Nc1ccc(OC2CCOCC2)cc1` [Compound 3546], the pEC50 under setting [1] is 8.00 to 11.00.

Consider `COCc1ccc(NC(=O)C(=O)NC[C@H](NC(=O)c2ccc(Nc3nc(NC4(c5ccc(Cl)cc5)CC4)nc(OCC(F)(F)F)n3)cc2)C(=O)O)cc1` [Compound 3288], for which the pEC50 under setting [1] was 8.00 to 11.00.

`COC(=O)[C@H](CNC(=O)C(=O)NC1CCC(C(C)(C)C)CC1)NC(=O)c1ccc(Nc2nc(NC3(c4ccc(Cl)cc4)CC3)nc(OCC(F)(F)F)n2)cc1` (stereo partly shown) [Compound 1062]: the pEC50 under setting [2] is 8.00 to 11.00.

For `COc1ccc(NC(=O)C(=O)NCC(C)(C)CNC(=O)c2ccc(Nc3nc(NC4(c5ccc(Cl)cc5)CC4)nc(OCc4ccc(C(C)C)cc4)n3)cc2F)cc1` [Compound 3828], the pEC50 (Huh-7, 48 h, HCV pseudoparticles, Huh7 cells, luciferase 2 days after infection, average of duplicates) is 9.46 and the pEC50 (Huh-7, 48 h, read-out: Activity (EC50 class), HCV pseudoparticles, Huh7 cells, luciferase 2 days after infection, average of duplicates) is 8.00 to 11.00.

In the case of `CC(C)(CNC(=O)C(=O)NS(=O)(=O)C1CC1)CNC(=O)c1ccc(Nc2nc(NC3(c4ccc(Cl)cc4)CC3)nc(OCC(F)(F)F)n2)cc1` [Compound 3032], under setting [1], the pEC50 is 8.00 to 11.00.

On to `O=C(NC[C@H](NC(=O)c1ccc(Nc2nc(NC3(c4ccc(Cl)cc4)CC3)nc(OCC(F)(F)F)n2)cc1)C(=O)O)C(=O)Nc1ccc(Oc2cccnc2)cc1` [Compound 3290], for which, under setting [1], the pEC50 was 8.00 to 11.00.

Turning to `COC(=O)[C@H](CCNC(=O)C(=O)Nc1ccc(-c2ccncc2)cc1)NC(=O)c1ccc(Nc2nc(NC3(c4ccc(Cl)cc4)CC3)nc(OCC(F)(F)F)n2)cc1` [Compound 1517], the pEC50 under setting [2] was 8.00 to 11.00.

`COC(=O)[C@@H](CCNC(=O)C(=O)Nc1ccccc1Cl)NC(=O)c1ccc(Nc2nc(NC3(c4ccc(Cl)cc4)CC3)nc(OCC(F)(F)F)n2)cc1` [Compound 1535]: under setting [2], the pEC50 is 8.00 to 11.00.

Consider `COC(=O)[C@H](CCNC(=O)C(=O)Nc1ccc(OC(F)F)cc1)NC(=O)c1ccc(Nc2nc(NC3(c4ccc(Cl)cc4)CC3)nc(OCC(F)(F)F)n2)cc1` [Compound 3332], for which the pEC50 under setting [1] is 8.00 to 11.00.

For the compound `COC(=O)[C@@H](CCNC(=O)C(=O)NCC1(NC(=O)OC(C)(C)C)CC1)NC(=O)c1ccc(Nc2nc(NC3(c4ccc(Cl)cc4)CC3)nc(OCC(F)(F)F)n2)cc1` [Compound 1381], the pEC50 under setting [2] was 8.00 to 11.00.

With `O=C(NCC[C@H](NC(=O)c1ccc(Nc2nc(NC3(c4ccc(Cl)cc4)CC3)nc(OCC(F)(F)F)n2)cc1)C(=O)O)C(=O)Nc1ccc(-n2cccn2)cc1` [Compound 3237], the pEC50 under setting [1] was 8.00 to 11.00.

With `COC(=O)[C@H](CNC(=O)C(=O)Nc1ccc(Cl)cc1)NC(=O)c1ccc(Nc2nc(NC3(c4ccc(Cl)cc4)CC3)nc(OCC(F)(F)F)n2)cc1` [Compound 3081], the pEC50 under setting [1] was 8.00 to 11.00.

For `COC(=O)/C(CCNC(=O)C(=O)Nc1cncc(-c2nncn2C)c1)=N\C(=O)c1ccc(Nc2nc(NC3(c4ccc(Cl)cc4)CC3)nc(OCC(F)(F)F)n2)cc1` [Compound 3597], the pEC50 runs as follows: (Huh-7, 48 h, HCV pseudoparticles (genotype 1a, H77C) in Huh7 cells, average of duplicate, luciferase 2 days after infection) 8.52; under setting [1], 8.00 to 11.00.

As to `COC(=O)[C@H](CCNC(=O)C(=O)Nc1ccccc1OC)NC(=O)c1ccc(Nc2nc(NC3(c4ccc(Cl)cc4)CC3)nc(OCC(F)(F)F)n2)cc1` [Compound 1234], the pEC50 under setting [2] was 8.00 to 11.00.
